Target: T1, RARγ (Homo sapiens, UniProt P13631)
T1 sequence (P13631 185-419 limits assumed): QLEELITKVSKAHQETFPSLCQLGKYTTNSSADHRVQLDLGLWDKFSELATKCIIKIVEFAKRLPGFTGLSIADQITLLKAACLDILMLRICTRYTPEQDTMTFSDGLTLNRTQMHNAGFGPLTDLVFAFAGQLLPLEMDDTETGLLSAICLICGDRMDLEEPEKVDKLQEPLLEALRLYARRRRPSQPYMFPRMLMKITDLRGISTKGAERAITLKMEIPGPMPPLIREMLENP
Assay: Gal4-RARγ-LBD UAS-luciferase reporter in HEK293T, activation at […]
Format: cell-based
Settings: hek293t cells

CC1=C(/C=C/C(C)=C/C=C/C(C)=C/C(=O)O)C(C)(C)CCC1 [ATRA, all-trans retinoic acid]
Gal4-RARγ-LBD UAS-luciferase reporter in HEK293T, activation at 1 nM (2.1 fold): 2.1 fold
